# System: IL-6
# Conditions: three-component LNP based on the compound, SARS-CoV-2 antigen mRNA, 30 µg intramuscular; compared with four-component LNP of ALC-0315; FIG. 4
row,Compound,expression levels of the systemic inflammatory factor IL-6
1,CCCCCCCCC(CCCCCC)C(=O)OCCCCCCN(CCCn1ccnc1)CCOC(=O)O[C@H]1CC[C@@]2(C)C(=CC[C@H]3[C@@H]4CC[C@H]([C@H](C)CCCC(C)C)[C@@]4(C)CC[C@@H]32)C1 (stereo partly drawn) [Compound 11],significantly reduced
2,CCCCCCCCC(CCCCCC)C(=O)OCCCCCCN(CCCCO)CCCCCCOC(=O)O[C@H]1CC[C@@]2(C)C(=CC[C@H]3[C@@H]4CC[C@H]([C@H](C)CCCC(C)C)[C@@]4(C)CC[C@@H]32)C1 (stereo partly drawn) [Compound 1],significantly reduced
3,CCCCCCCCC(CCCCCC)C(=O)OCCCCCCN(CCCCCCOC(=O)O[C@H]1CC[C@@]2(C)C(=CC[C@H]3[C@@H]4CC[C@H]([C@H](C)CCCC(C)C)[C@@]4(C)CC[C@@H]32)C1)CCCn1ccnc1 (stereo partly drawn) [Compound 6],significantly reduced

# Reference: patent EP4707289A1, “STEROID-CATIONIC LIPID COMPOUND AND USE THEREOF” (priority 2023, dated 2024)
